C=NCC#N
solubility (mole fraction)
Conditions	278.15 K	283.15 K	288.15 K	293.15 K	298.15 K	303.15 K	308.15 K	313.15 K	318.15 K	323.15 K
in ethanol	0.00175	0.00213	0.00253	0.00303	0.00357	0.00424	0.00501	0.00595	0.00695	0.00814
in methanol	0.00436	0.00516	0.00624	0.00747	0.00894	0.0107	0.0125	0.0145	0.0169	0.0196
in n-butanol	0.000479	0.000578	0.000686	0.000819	0.000985	0.00115	0.00139	0.00162	0.00191	0.00224
in n-propanol	0.00099	0.00125	0.00151	0.00183	0.00222	0.00266	0.00315	0.0037	0.00427	0.00499
in water	0.00083	0.000998	0.00119	0.00143	0.00171	0.00198	0.00235	0.00274	0.0032	0.00371
